# Test system: subject
# Assay: Electrocardiography before and after oral ingestion of NMN capsules in a subject with suspected ventricular extrasystole
# Assay type: in vivo, human
# Protocol: On Jun. 4, 2020, electrocardiography was performed on a subject by placing the subject in the supine position, putting clips on the extremities, attaching electrodes to the chest, and using an electrocardiograph (product name: Electrocardiograph ECG-2250, manufactured by NIHON KOHDEN CORPORATION) with leads I to III and leads aVR, aVL, and aVF. The paper feed speed of the electrocardiogram was set to 25 mm/second, and the vertical axis was set to 1 mV=10 mm for recording. The result is indicated in the electrocardiogram of FIG. 2 (horizontal axis: time (second), vertical axis: electric potential (mV)).
# Afterwards, from Oct. 18, 2020, the subject was caused to ingest (take orally) one capsule per day of NMN pure 3000 plus (NMN 50 mg/capsule, manufactured by MIRAILAB BIOSCIENCE Inc., trade name) for 47 consecutive days.
# Then, on Jan. 4, 2021, electrocardiography was performed again on the above-described subject similarly as described above. The result is indicated in the electrocardiogram of FIG. 3 (horizontal axis: time (second), vertical axis: electric potential (mV)). […] From this, it was confirmed that NMN ingestion was effective for electrocardiogram abnormalities and arrhythmias.
smiles,measurement,setting,value
"NC(=O)c1ccc[n+]([C@@H]2O[C@H](COP(=O)([O-])O)[C@@H](O)[C@H]2O)c1 [NMN, nicotinamide mononucleotide]",heart rate,"after ingestion of one capsule per day (NMN 50 mg/capsule) for 47 consecutive days, 69 bpm before ingestion",57 bpm
same,electrocardiogram waveforms,"one subject, one capsule per day (NMN 50 mg/capsule) orally for 47 consecutive days, ECG on Jan. 4, 2021",appeared with regularity in order
same,QRS complexes having a wide and odd-shaped waveform,"one subject, one capsule per day (NMN 50 mg/capsule) orally for 47 consecutive days, ECG on Jan. 4, 2021, complexes were recognized before ingestion",not recognized
same,effect on electrocardiogram abnormalities and arrhythmias,"overall conclusion, one subject, NMN 50 mg/day orally for 47 consecutive days",effective
